Literature values, collected in patent EP4755400A1, “ANTIBODY-DRUG CONJUGATE CONTAINING GLYCOSYLPYRIDINE LINKER” (Novocodex Biopharmaceuticals Co., Ltd., priority 2023, dated 2025).

Tested on: human carcinoma lines

IC50: 100 to 200 nM
SMILES: COc1cccc2c1C(=O)c1c(O)c3c(c(O)c1C2=O)C[C@@](O)(C(=O)CO)C[C@@H]3O[C@H]1C[C@H](N)[C@H](O)[C@H](C)O1 [doxorubicin]
